Assay results from patent US11339177B2, “Heteroaryl compounds as inhibitors of necrosis, composition and method using the same” (ACCRO BIOSCIENCE INC., priority 2017, dated 2022).

Tested on: HT29 cells
Assay: Necroptosis assay in HT29 cells (TNF-α, Smac mimetic, z-VAD; cell viability)
Format: cell-based
Conditions: Homo sapiens, HT-29; TNF-α (40 ng/mL), Smacmimetic (100 nM), z-VAD (20 μM), 48 hours
Description: Human colon cancer HT29 cells were used in a necroptosis assay. For this assay, HT29 cells were added to 96-well plates and then were pre-treated with 10 μM of the test compound for one hour. Then the cells were treated with TNF-α (40 ng/mL), Smacmimetic (100 nM) and z-VAD (20 μM) for 48 hours, and the viability of cells was quantified. DMSO pretreatment group was used as negative controls, Nec-1 pretreatment group was used as positive controls.
In Table 2, (1) “ND” indicates “not detected;” (2) Explanation for inhibition %: Taking Compound B14 as an example, its inhibition % was 30% (50 nM). It means that the when Compound B14 at a concentration of 50 nM was used in the HT29 Cell Assay, the necrosis of cells were inhibited at 30%.

Row | SMILES | IC50 [nM]
1 | O=C(Nc1cn2cc(-c3cnc4c(c3)N(C(=O)OCC3CC3)CC4)ccc2n1)C1CC1 [Compound B77] | 1.7
2 | CC(=O)Nc1nc2ccc(-c3cnc4c(c3)N(C(=O)OC3CCOCC3)CCN4)cc2s1 [Compound B41] | 110
3 | O=C(Nc1nc2ccc(-c3cnc4c(c3)N(C(=O)OC3CCOCC3)CCO4)nc2s1)C1CC1 [Compound B35] | 36
4 | CNC(=O)Nc1cn2cc(-c3cnc4c(c3)N(C(=O)OCC3CC3)CC4)ccc2n1 [Compound B75] | 19
5 | CC(=O)Nc1nc2ccc(-c3cnc4c(c3)N(C(=O)CC3CCOCC3)CC4)cc2s1 [Compound B61] | 39
6 | O=C(Nc1nc2ccc(-c3cnc4c(c3)N(C(=O)OC3CCNCC3)CC4)cc2s1)C1CC1 [Compound B67, Piperidin-4-yl-6-(2-(cyclopropanecarboxamido)benzo[d]thiazol-6-yl)-2,3-dihydro-1H-pyrrolo[3,2-b]pyridine-1-carboxylate] | 300
7 | O=C(Nc1cn2cc(-c3cnc4c(c3)N(C(=O)OC3CCOCC3)CC4)ccc2n1)C1CC1 [Compound B56] | 4.6
8 | O=C(Nc1nc2ccc(-c3cnc4c(c3)N(C(=O)OC3COC3)CC4)cc2s1)C1CC1 [Compound B78, Oxetan-3-yl-6-(2-(cyclopropanecarboxamido)benzo[d]thiazol-6-yl)-2,3-dihydro-1H-pyrrolo[3,2-b]pyridine-1-carboxylate] | 6.7
9 | CC(=O)Nc1cn2nc(-c3cnc4c(c3)N(C(=O)OC3CCCCC3)CCO4)ccc2n1 [Compound B12] | 11
10 | CC(=O)Nc1cn2cc(-c3cnc4c(c3)N(C(=O)OC3CCOCC3)CC4)ccc2n1 [Compound B55] | 49
11 | O=C(Nc1nc2ccc(-c3cnc4c(c3)N(C(=O)OC3CCOCC3)CC4)cc2s1)C1CC1 [Compound B54] | 2
12 | O=C1CCn2c(nc3ccc(-c4cnc5c(c4)N(C(=O)OC4CCCCC4)CCO5)cc32)N1 [Compound B33, Cyclohexyl7-(2-oxo-1,2,3,4-tetrahydrobenzo[4,5]imidazo[1,2-a]pyrimidin-7-yl)-2,3-dihydro-1H-pyrido[2,3-b][1,4]oxazine-1-carboxylate] | 15
13 | CC(C)(C)OC(=O)Nc1cn2cc(-c3cnc4c(c3)N(C(=O)OC3CCCCC3)CCO4)ccc2n1 [Compound B10] | 5
14 | O=C(Nc1nc2ccc(-c3cnc4c(c3)N(C(=O)CC3CCOCC3)CC4)cc2s1)C1CC1 [Compound B62, N-(6-(1-(2-(tetrahydro-2H-pyran-4-yl)acetyl)-2,3-dihydro-1H-pyrrolo[3,2-b]pyridin-6-yl)benzo[d]thiazol-2-yl)cyclopropanecarboxamide] | 1.9
15 | CC(=O)Nc1nc2ccc(-c3cnc4c(c3)N(C(=O)OC3COCCOC3)CCO4)cc2s1 [Compound B27] | 132
16 | CNC(=O)Nc1nc2ccc(-c3cnc4c(c3)N(C(=O)OCC3CC3)CC4)nc2s1 [Compound B74] | 23
17 | O=C(Nc1nc2ccc(-c3cnc4c(c3)N(C(=O)OC3CCOCC3)CC4)nc2s1)C1CC1 [Compound B59, tetrahydro-2H-pyran-4-yl6-(2-(cyclopropanecarboxamido)thiazolo[5,4-b]pyridin-5-yl)-2,3-dihydro-1H-pyrrolo[3,2-b]pyridine-1-carboxylate] | 7
18 | Nc1nc2cc(-c3cnc4c(c3)N(C(=O)OC3CCCCC3)CCO4)ccn2n1 [Compound B4] | 90
19 | O=C(Nc1cn2nc(-c3cnc4c(c3)N(C(=O)OC3CCOCC3)CC4)ccc2n1)C1CC1 [Compound B58] | 17
20 | O=C(Nc1nc2ccc(-c3cnc4c(c3)N(C(=O)OC3CCOCC3)CCC4)nc2s1)C1CC1 [Compound B51] | 7.2
21 | CNC(=O)Nc1nc2ccc(-c3cnc4c(c3)N(C(=O)OCC3CC3)CC4)cc2s1 [Compound B73] | 1.8
22 | CC(=O)Nc1nc2ccc(-c3cnc4c(c3)N(C(=O)NC3CCCCC3)CCO4)cc2s1 [Compound B28] | 39
23 | CC(=O)Nc1nc2ccc(-c3cnc4c(c3)N(C(=O)CC3CCCCC3)CCO4)cc2s1 [Compound B29] | 27
24 | CC(C)(C)OC(=O)Nc1nc2ccc(-c3cnc4c(c3)N(C(=O)OC3CCOCC3)CCO4)cc2s1 [Compound B17, tetrahydro-2H-pyran-4-yl-7-(2-((tert-butoxycarbonyl)amino)benzo[d]thiazol-6-yl)-2,3-dihydro-1H-pyrido[2,3-b][1,4]oxazine-1-carboxylate] | 26
25 | CC(=O)Nc1nc2ccc(-c3cnc4c(c3)N(C(=O)OC3CCCCC3)CCN4C3CC3)cc2s1 [Compound B47] | 157
26 | CC(=O)Nc1nc2ccc(-c3cnc4c(c3)N(C(=O)OC3CCOCC3)CC4)cc2s1 [Compound B53, tetrahydro-2H-pyran-4-yl6-(2-acetamidobenzo[d]thiazol-6-yl)-2,3-dihydro-1H-pyrrolo[3,2-b]pyridine-1-carboxylate] | 4.7

Row | SMILES | IC50 [nM]
27 | CC(=O)Nc1ccc2cc(-c3cnc4c(c3)N(C(=O)OC3CCCCC3)CCO4)ccc2n1 [Compound B80, Cyclohexyl7-(2-acetamidoquinolin-6-yl)-2,3-dihydro-1H-pyrido[2,3-b][1,4]oxazine-1-carboxylate] | 1000
28 | CNC(=O)Nc1cn2cc(-c3cnc4c(c3)N(C(=O)OC3CCOCC3)CC4)ccc2n1 [Compound B72] | 48.1
29 | CC(=O)Nc1nc2ccc(-c3cnc4c(c3)N(C(=O)OC3CCCCCC3)CCO4)cc2s1 [Compound B26] | 3.2
30 | O=C(Nc1nc2ccc(-c3cnc4c(c3)N(C(=O)OC3CCOCC3)CCC4)cc2s1)C1CC1 [Compound B50, tetrahydro-2H-pyran-4-yl-7-(2-(cyclopropanecarboxamido)benzo[d]thiazol-6-yl)-3,4-dihydro-1,5-naphthyridine-1(2H)-carboxylate] | 1.5
31 | CC(=O)Nc1nc2ccc(-c3cnc4c(c3)N(C(=O)OC3CCOCC3)CCC4)cc2s1 [Compound B49] | 11.4
32 | CCN1CCN(C(=O)OC2CCCCC2)c2cc(-c3ccc4nc(NC(C)=O)sc4c3)cnc21 [Compound B46] | 70
33 | CC(=O)Nc1nc2ccc(-c3cnc4c(c3)N(C(=O)OC3CCCCC3)CCO4)nc2s1 [Compound B31] | 8.5
34 | CC(=O)Nc1nc2ccc(-c3cnc4c(c3)N(C(=O)OC3CCCCC3)CCO4)cc2s1 [Compound B2, Cyclohexyl-7-(2-acetamidobenzo[d]thiazol-6-yl)-2,3-dihydro-1H-pyrido[2,3-b][1,4]oxazine-1-carboxylate] | 2
35 | CC(=O)Nc1nc2ccc(-c3cnc4c(c3)N(C(=O)OC3CCCCC3)CCN4C)cc2s1 [Compound B43, cyclohexyl7-(2-acetamidobenzo[d]thiazol-6-yl)-4-methyl-3,4-dihydropyrido[2,3-b]pyrazine-1(2H)-carboxylate] | 13
36 | O=C1Cn2c(nc3ccc(-c4cnc5c(c4)N(C(=O)OC4CCCCC4)CCO5)cc32)N1 [Compound B34] | 2300
37 | CC(=O)Nc1nc2ccc(-c3cnc4c(c3)N(C(=O)OC3CCCCC3)CC(=O)N4)cc2s1 [Compound B39, Cyclohexyl-7-(2-acetamidobenzo[d]thiazol-6-yl)-3-oxo-3,4-dihydropyrido[2,3-b]pyrazine-1(2H)-carboxylate] | 2700
38 | CC(=O)Nc1nc2ccc(-c3cnc4c(c3)N(C(=O)OC3CCCCC3)CCC4)cc2s1 [Compound B48, cyclohexyl-7-(2-acetamidobenzo[d]thiazol-6-yl)-3,4-dihydro-1,5-naphthyridine-1(2H)-carboxylate] | 2.4
39 | O=C(Nc1nc2ccc(-c3cnc4c(c3)N(C(=O)OC3CCOCC3)CCN4)cc2s1)C1CC1 [Compound B42] | 38
40 | CC(=O)Nc1nc2cc(-c3cnc4c(c3)N(C(=O)OC3CCCCC3)CCO4)ccn2n1 [Compound B5] | 42
41 | CC(=O)Nc1nc2ccc(-c3cnc4c(c3)N(C(=O)CC3CCOCC3)CCO4)cc2s1 [Compound B36] | 530
42 | CNC(=O)Nc1nc2ccc(-c3cnc4c(c3)N(C(=O)OC3CCOCC3)CC4)nc2s1 [Compound B71] | 33.4
43 | Nc1nc2ccc(-c3cnc4c(c3)N(C(=O)OC3CCCCC3)CCO4)cn2n1 [Compound B6] | 90
44 | CC(=O)Nc1nc2ccc(-c3cnc4c(c3)N(C(=O)CC(C)(C)C)CCO4)cc2s1 [Compound B30] | 186
45 | O=C(Nc1cn2cc(-c3cnc4c(c3)N(C(=O)CC3CCOCC3)CC4)ccc2n1)C1CC1 [Compound B64] | 53
46 | CC(=O)Nc1nc2ccc(-c3cnc4c(c3)N(C(=O)OC3CCCCC3)CC4)cc2s1 [Compound B52] | 5
47 | CNCC(C)OC(=O)N1CCc2ncc(-c3ccc4nc(NC(=O)C5CC5)sc4c3)cc21 (centres unmarked) [Compound B79] | 16
48 | CC(=O)Nc1nc2ccc(-c3cnc4c(c3)N(C(=O)OC3CCCCC3)CCN4)cc2s1 [Compound B40, Cyclohexyl-7-(2-acetamidobenzo[d]thiazol-6-yl)-3,4-dihydropyrido[2,3-b]pyrazine-1(2H)-carboxylate] | 24
49 | CC(=O)Nc1nc2ccc(-c3cnc4c(c3)N(C(=O)OC3CCOCC3)CCN4C)cc2s1 [Compound B44] | 95
50 | CN1CCN(C(=O)OC2CCOCC2)c2cc(-c3ccc4nc(NC(=O)C5CC5)sc4c3)cnc21 [Compound B45] | 18
51 | O=C(Nc1nc2ccc(-c3cnc4c(c3)N(C(=O)OC3CCCCC3)CCO4)nc2s1)C1CC1 [Compound B32] | 0.9
52 | O=C(Nc1nc2ccc(-c3cnc4c(c3)N(C(=O)OCC3CC3)CC4)nc2s1)C1CC1 [Compound B76] | 2.4

Tested on: L929 cells
Assay: Necroptosis assay in L929 cells (TNF-α, z-VAD; cell viability by ATP levels)
Format: cell-based
Conditions: Mus musculus, TNF-α (40 ng/mL), z-VAD (20 μM), 48 hours
Description: […] Then the cells were treated with TNF-α (40 ng/mL) and z-VAD (20 μM) for 48 hours, and the viability of cells was quantified by detecting adenosine triphosphate (ATP) levels. DMSO pretreatment group was used as negative controls, Nec-1 pretreatment group was used as positive controls.

Row | SMILES | IC50 [nM]
53 | O=C(Nc1nc2ccc(-c3cnc4c(c3)N(C(=O)OC3CCOCC3)CCO4)nc2s1)C1CC1 [Compound B35] | 1
